Assay results from patent publication US9783536B2, “Nitrogen-containing heterocyclic compound or salt thereof” (FUJIFILM Corporation, priority 2013, dated 2017).
Where a name gives a salt, the structure may show the parent alone. Read-outs that look alike come from different tables or passages of the source.

Tests used:
[1] = biological target: T1, human PI3Kα protein (Homo sapiens, UniProt P42336); assay: PI3Kα enzyme assay (ADP-Glo); type: biochemical; details: read-out: PI3Kα enzyme inhibitory activity
T1 construct: purchased Carna Biosciences, Inc; host or cells: baculovirus expression system
Procedure, shortened: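 Biotinylated human PI3Kα (baculovirus-expressed, 4.5 nmol/L) pre-incubated 15 min with compound in Tris-HCl pH 7.5, MgCl2, BSA; reaction 60 min at 25° C with 50 μmol/L PIP2 and 100 μmol/L ATP final. ADP quantified by ADP-Glo luminescence; IC50 calculated.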

[2] = biological target: T2, GST fusion human ERK2 protein (Homo sapiens, UniProt P28482); assay: ERK2 enzyme assay (1); type: biochemical; details: read-out: ERK2 enzyme inhibitory activity (1)
T2 construct: purchased Carna Biosciences, Inc; host or cells: E. coli expression system
Procedure, shortened: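 Enzyme (2.5 nmol/L, E. coli-expressed) preincubated with compound 15 min at room temperature in HEPES/MgCl2/DTT/Brij35 buffer, pH 7.5; reaction with 4.25 μmol/L FL-Peptide 8 and 43.1 μmol/L ATP for 120 min at 25 °C. Phosphorylated peptide fraction quantified by mobility-shift separation after EDTA stop; IC50 calculated.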

[3] = 4.5 nmol/L PI3Kα, PIP2 50 μmol/L, ATP 100 μmol/L
[4] = 2.5 nmol/L ERK2, ATP 43.1 μmol/L

T1 sequence (P42336 whole entry): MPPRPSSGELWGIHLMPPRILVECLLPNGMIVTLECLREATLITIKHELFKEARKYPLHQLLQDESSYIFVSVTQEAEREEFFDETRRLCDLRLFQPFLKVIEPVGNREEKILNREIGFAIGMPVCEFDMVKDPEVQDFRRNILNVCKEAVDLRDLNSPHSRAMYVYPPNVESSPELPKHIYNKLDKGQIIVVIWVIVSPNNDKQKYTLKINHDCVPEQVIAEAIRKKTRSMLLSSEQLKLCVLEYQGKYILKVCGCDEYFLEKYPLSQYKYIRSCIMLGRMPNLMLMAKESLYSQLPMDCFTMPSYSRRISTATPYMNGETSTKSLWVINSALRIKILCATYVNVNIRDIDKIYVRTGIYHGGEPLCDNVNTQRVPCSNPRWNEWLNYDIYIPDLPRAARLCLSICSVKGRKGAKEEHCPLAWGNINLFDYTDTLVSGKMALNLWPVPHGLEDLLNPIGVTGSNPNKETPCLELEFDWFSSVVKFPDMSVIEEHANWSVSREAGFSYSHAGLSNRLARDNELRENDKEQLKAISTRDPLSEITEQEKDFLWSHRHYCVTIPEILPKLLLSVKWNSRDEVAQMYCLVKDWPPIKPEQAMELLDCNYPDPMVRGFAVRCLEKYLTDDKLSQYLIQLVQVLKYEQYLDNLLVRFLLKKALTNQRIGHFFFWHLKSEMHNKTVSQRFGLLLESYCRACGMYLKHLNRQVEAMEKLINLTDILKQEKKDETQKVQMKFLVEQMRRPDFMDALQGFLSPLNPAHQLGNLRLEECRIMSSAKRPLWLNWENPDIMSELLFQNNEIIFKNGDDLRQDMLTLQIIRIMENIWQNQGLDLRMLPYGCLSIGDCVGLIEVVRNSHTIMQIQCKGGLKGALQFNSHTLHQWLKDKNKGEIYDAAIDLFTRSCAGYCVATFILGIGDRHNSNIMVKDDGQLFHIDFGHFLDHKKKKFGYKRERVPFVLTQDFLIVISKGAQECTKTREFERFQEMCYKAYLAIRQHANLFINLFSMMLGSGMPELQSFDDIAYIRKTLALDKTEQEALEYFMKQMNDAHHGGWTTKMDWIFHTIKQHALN
T1 sequence (P27986 whole entry partner): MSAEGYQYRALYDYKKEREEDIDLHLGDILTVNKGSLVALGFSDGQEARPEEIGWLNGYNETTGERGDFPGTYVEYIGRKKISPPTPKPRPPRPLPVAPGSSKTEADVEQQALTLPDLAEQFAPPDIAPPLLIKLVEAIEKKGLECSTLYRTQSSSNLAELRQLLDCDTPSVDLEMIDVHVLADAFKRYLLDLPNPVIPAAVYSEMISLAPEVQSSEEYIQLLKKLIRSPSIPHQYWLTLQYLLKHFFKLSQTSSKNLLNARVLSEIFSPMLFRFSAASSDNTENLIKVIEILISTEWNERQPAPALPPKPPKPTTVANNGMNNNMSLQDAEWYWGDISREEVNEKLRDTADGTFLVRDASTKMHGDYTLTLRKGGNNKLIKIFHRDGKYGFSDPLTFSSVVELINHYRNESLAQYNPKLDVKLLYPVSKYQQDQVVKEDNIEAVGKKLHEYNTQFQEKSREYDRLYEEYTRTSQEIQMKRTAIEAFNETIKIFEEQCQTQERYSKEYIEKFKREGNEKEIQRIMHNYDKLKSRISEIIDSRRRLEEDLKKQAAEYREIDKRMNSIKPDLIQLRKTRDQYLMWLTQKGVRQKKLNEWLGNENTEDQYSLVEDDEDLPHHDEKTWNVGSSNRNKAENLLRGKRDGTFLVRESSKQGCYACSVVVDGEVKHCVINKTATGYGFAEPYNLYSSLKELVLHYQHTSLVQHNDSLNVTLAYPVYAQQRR
T2 sequence (P28482 whole entry, the tested form may be a part): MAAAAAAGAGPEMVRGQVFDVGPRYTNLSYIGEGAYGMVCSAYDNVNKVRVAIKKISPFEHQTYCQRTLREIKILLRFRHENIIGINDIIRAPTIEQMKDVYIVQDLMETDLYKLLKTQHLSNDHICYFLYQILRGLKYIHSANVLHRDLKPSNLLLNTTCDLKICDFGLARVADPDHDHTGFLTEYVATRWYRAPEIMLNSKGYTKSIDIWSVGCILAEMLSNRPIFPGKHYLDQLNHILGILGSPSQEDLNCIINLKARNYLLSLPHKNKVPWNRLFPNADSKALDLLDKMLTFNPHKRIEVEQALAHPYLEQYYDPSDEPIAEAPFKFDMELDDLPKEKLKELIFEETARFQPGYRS

| IC50 [1, 3] | IC50 [2, 4] | IC50 [1] | IC50 ([2]; ERK2 enzyme assay (1)) | Structure (SMILES) |
| --- | --- | --- | --- | --- |
| < 1000 nM | < 1000 nM |  |  | CC(C)c1nnc(Nc2ccc3ncc(-c4cn(C)nc4-c4ccccn4)cc3n2)s1 [Example 0136, 5-isopropyl-N-(7-(1-methyl-3-(pyridin-2-yl)-1H-pyrazol-4-yl)-1,5-naphthyridin-2-yl)-1,3,4-thiadiazole-2-amine] |
| 1000 to 10000 nM | 1000 to 10000 nM |  |  | COCc1csc(Nc2ccc3ncc(-c4cnn(C)c4)cc3n2)n1 [Example 0141] |
| 1000 to 10000 nM | < 1000 nM |  |  | CC(C)Cc1cnc(Nc2ccc3ncc(-c4cnn(C)c4)cc3n2)s1 [Example 0143, 5-isobutyl-N-(7-(1-methyl-1H-pyrazol-4-yl)-1,5-naphthyridin-2-yl)thiazole-2-amine] |
| < 1000 nM | < 1000 nM |  |  | CC(C)Cc1cnc(Nc2ccc3ncc(-c4cnn(CCCN5CCCC5)c4)cc3n2)s1 [Example 0144] |
| < 1000 nM | < 1000 nM |  |  | CC(C)OCc1nn(C)cc1-c1cnc2ccc(Nc3nnc(C(C)C)s3)nc2c1 [Example 0146] |
| 1000 to 10000 nM | < 1000 nM |  |  | Cn1cc(-c2cnc3ccc(Nc4ccc(Cl)nn4)nc3c2)cn1 [Example 0152] |
| 1000 to 10000 nM | < 1000 nM |  |  | CC(C)c1cnnc(Nc2ccc3ncc(-c4cn[nH]c4)cc3n2)c1 [Example 0153] |
| 1000 to 10000 nM | < 1000 nM |  |  | Cc1cnnc(Nc2ccc3ncc(-c4cn[nH]c4)cc3n2)c1 [Example 0154] |
| < 1000 nM | < 1000 nM |  |  | Cc1nn(CCCN2CCCC2)cc1-c1cnc2ccc(Nc3cc(C(C)C)cnn3)nc2c1 [Example 0156, N-(5-isopropylpyridazin-3-yl)-7-(3-methyl-1-(3-(pyrrolidin-1-yl)propyl)-1H-pyrazol-4-yl)-1,5-naphthyridine-2-amine] |
| 10000 to 50000 nM | < 1000 nM |  |  | Cn1cc(-c2cnc3ccc(Nc4nnc(Cc5ccccc5)s4)nc3c2)cn1 [Example 0165, 5-benzyl-N-(7-(1-methyl-1H-pyrazol-4-yl)-1,5-naphthyridin-2-yl)-1,3,4-thiadiazole-2-amine] |
| 1000 to 10000 nM | < 1000 nM |  |  | CN(C)Cc1nnc(Nc2ccc3ncc(-c4cnn(C)c4)cc3n2)s1 [Example 0166, 5-((Dimethylamino)methyl)-N-(7-(1-methyl-1H-pyrazol-4-yl)-1,5-naphthyridin-2-yl)-1,3,4-thiadiazole-2-amine] |
| 10000 to 50000 nM | < 1000 nM |  |  | Cn1cc(-c2cnc3ccc(Nc4nnc(CCc5ccccc5)s4)nc3c2)cn1 [Example 0171, N-(7-(1-methyl-1H-pyrazol-4-yl)-1,5-naphthyridin-2-yl)-5-phenethyl-1,3,4-thiadiazole-2-amine] |
| < 1000 nM | < 1000 nM |  |  | c1n[nH]cc1Nc1cnc2ccc(Nc3nnc(C4CCCC4)s3)nc2c1 [Example 0175, N^2-(5-cyclopentyl-1,3,4-thiadiazol-2-yl)-N^7-(1H-pyrazol-4-yl)-1,5-naphthyridine-2,7-diamine] |
| < 1000 nM | < 1000 nM |  |  | Cn1cc(-c2cnc3ccc(Nc4nnc(S(=O)(=O)Nc5ccccc5)s4)nc3c2)cn1 [Example 0176, 5-((7-(1-methyl-1H-pyrazol-4-yl)-1,5-naphthyridin-2-yl)amino)-N-phenyl-1,3,4-thiadiazole-2-sulfonamide] |
| < 1000 nM | < 1000 nM |  |  | Cn1cc(-c2cnc3ccc(Nc4nnc(NS(=O)(=O)c5ccccc5)s4)nc3c2)cn1 [Example 0177, N-(5-((7-(1-methyl-1H-pyrazol-4-yl)-1,5-naphthyridin-2-yl)amino)-1,3,4-thiadiazol-2-yl)benzene sulfonamide hydrochloride] |
| < 1000 nM | < 1000 nM |  |  | CCc1cnnc(Nc2ccc3ncc(-c4cnn(CCCN5CCOCC5)c4)cc3n2)c1 [Example 0178, N-(5-ethylpyridazin-3-yl)-7-(1-(3-morpholinopropyl)-1H-pyrazol-4-yl)-1,5-naphthyridine-2-amine] |
| 1000 to 10000 nM | < 1000 nM |  |  | CC(C)(C)OC(=O)N1CCN(CCn2cc(-c3cnc4ccc(Nc5nnc(S(=O)(=O)Nc6ccccc6)s5)nc4c3)cn2)CC1 [Example 0180, tert-Butyl 4-(2-(4-(6-((5-(N-phenylsulfamoyl)-1,3,4-thiadiazol-2-yl)amino)-1,5-naphthyridin-3-yl)-1H-pyrazol-1-yl)ethyl)piperazine-1-carboxylate] |
| < 1000 nM | < 1000 nM |  |  | O=S(=O)(Nc1ccccc1)c1nnc(Nc2ccc3ncc(-c4cnn(CCN5CCNCC5)c4)cc3n2)s1 [Example 0181, N-phenyl-5-((7-(1-(2-(piperazin-1-yl)ethyl)-1H-pyrazol-4-yl)-1,5-naphthyridin-2-yl)amino)-1,3,4-thiadiazole-2-sulfonamide hydrochloride] |
| 1000 to 10000 nM | < 1000 nM |  |  | Cc1nnc(Nc2ccc3ncc(Nc4cn[nH]c4)cc3n2)s1 [Example 0182] |

| IC50 [1, 3] | IC50 [2, 4] | IC50 [1] | IC50 ([2]; ERK2 enzyme assay (1)) | Structure (SMILES) |
| --- | --- | --- | --- | --- |
| 1000 to 10000 nM | < 1000 nM |  |  | Cc1nnc(Nc2ccc3ncc(N(C)c4cn[nH]c4)cc3n2)s1 [Example 0183, N^7-methyl-N^2-(5-methyl-1,3,4-thiadiazol-2-yl)-N^7-(1H-pyrazol-4-yl)-1,5-naphthyridine-2,7-diamine] |
| 1000 to 10000 nM | < 1000 nM |  |  | Cc1nnc(Nc2ccc3ncc(Nc4cnn(C)c4)cc3n2)s1 [Example 0184] |
| < 1000 nM | < 1000 nM |  |  | Cc1nnc(Nc2ccc3ncc(N(C)c4cnn(C)c4)cc3n2)s1 [Example 0185, N^7-methyl-N^2-(5-methyl-1,3,4-thiadiazol-2-yl)-N^7-(1-methyl-1H-pyrazol-4-yl)-1,5-naphthyridine-2,7-diamine] |
| < 1000 nM | < 1000 nM |  |  | c1nnc(Nc2ccc3ncc(Nc4cn[nH]c4)cc3n2)s1 [Example 0186, N^7-(1H-pyrazol-4-yl)-N^2-(1,3,4-thiadiazol-2-yl)-1,5-naphthyridine-2,7-diamine] |
| < 1000 nM | < 1000 nM |  |  | Cn1cc(-c2cnc3ccc(Nc4nnc(NS(C)(=O)=O)s4)nc3c2)cn1 [Example 0187, N-(5-((7-(1-methyl-1H-pyrazol-4-yl)-1,5-naphthyridin-2-yl)amino)-1,3,4-thiadiazol-2-yl)methane sulfonamide] |
| < 1000 nM | < 1000 nM |  |  | O=S(=O)(Nc1ccccc1)c1nnc(Nc2ccc3ncc(-c4cnn(CCN5CCOCC5)c4)cc3n2)s1 [Example 0188, 5-((7-(1-(2-morpholinoethyl)-1H-pyrazol-4-yl)-1,5-naphthyridin-2-yl)amino)-N-phenyl-1,3,4-thiadiazole-2-sulfonamide sodium salt] |
| 1000 to 10000 nM | < 1000 nM |  |  | CN(c1nnc(Nc2ccc3ncc(-c4cnn(C)c4)cc3n2)s1)S(=O)(=O)c1ccccc1 [Example 0190] |
| < 1000 nM | < 1000 nM |  |  | Cn1cc(-c2cnc3ccc(Nc4nnc(S(N)(=O)=O)s4)nc3c2)cn1 [Example 0191, ((5-((7-(1-methyl-1H-pyrazol-4-yl)-1,5-naphthyridin-2-yl)amino)-1,3,4-thiadiazol-2-yl)sulfonyl)amide sodium salt] |
| < 1000 nM | < 1000 nM |  |  | Cn1cc(-c2cnc3ccc(Nc4nnc(S(=O)(=O)NCc5ccccc5)s4)nc3c2)cn1 [Example 0192, N-benzyl-5-((7-(1-methyl-1H-pyrazol-4-yl)-1,5-naphthyridin-2-yl)amino)-1,3,4-thiadiazole-2-sulfonamide sodium salt] |
| < 1000 nM | < 1000 nM |  |  | CN(C)S(=O)(=O)c1nnc(Nc2ccc3ncc(-c4cnn(C)c4)cc3n2)s1 [Example 0193, N,N-dimethyl-5-((7-(1-methyl-1H-pyrazol-4-yl)-1,5-naphthyridin-2-yl)amino)-1,3,4-thiadiazole-2-sulfonamide] |
| 1000 to 10000 nM | < 1000 nM |  |  | Cn1cc(Nc2cnc3ccc(Nc4nnc(C5CCCC5)s4)nc3c2)cn1 [Example 0194] |
| 1000 to 10000 nM | < 1000 nM |  |  | CN(c1cnc2ccc(Nc3nnc(C4CCCC4)s3)nc2c1)c1cnn(C)c1 [Example 0195, N^2-(5-cyclopentyl-1,3,4-thiadiazol-2-yl)-N^7-methyl-N^7-(1-methyl-1H-pyrazol-4-yl)-1,5-naphthyridine-2,7-diamine] |
| 1000 to 10000 nM | < 1000 nM |  |  | CN(c1cn[nH]c1)c1cnc2ccc(Nc3nnc(C4CCCC4)s3)nc2c1 [Example 0196, N^2-(5-cyclopentyl-1,3,4-thiadiazol-2-yl)-N^7-methyl-N^7-(1H-pyrazol-4-yl)-1,5-naphthyridine-2,7-diamine] |
| < 1000 nM | < 1000 nM |  |  | CN1CCN(CCCn2cc(-c3cnc4ccc(Nc5nnc(C6CCCC6)s5)nc4c3)cn2)CC1 [Example 0197, 5-cyclopentyl-N-(7-(1-(3-(4-methylpiperazin-1-yl)propyl)-1H-pyrazol-4-yl)-1,5-naphthyridin-2-yl)-1,3,4-thiadiazole-2-amine] |
| 1000 to 10000 nM | 1000 to 10000 nM |  |  | Cn1cc(-c2cnc3ccc(Nc4cncs4)nc3c2)cn1 [Example 0199, N-(7-(1-methyl-1H-pyrazol-4-yl)-1,5-naphthyridin-2-yl)thiazole-5-amine] |
| 1000 to 10000 nM | 1000 to 10000 nM |  |  | c1ccc(Nc2cnc3ccc(Nc4nnc(C5CCCC5)s4)nc3c2)cc1 [Example 0200, N^2-(5-cyclopentyl-1,3,4-thiadiazol-2-yl)-N^7-phenyl-1,5-naphthyridine-2,7-diamine] |
|  |  | 1000 to 10000 nM | < 1000 nM | c1n[nH]cc1-c1cnc2ccc(Nc3nnc(C4CCCC4)s3)nc2c1 [Example 0201] |
|  |  | 10000 to 50000 nM | < 1000 nM | COc1cc(-c2cnc3ccc(Nc4nnc(C5CCCC5)s4)nc3c2)ccc1O [Example 0202] |
